Measurements from PubChem BioAssay AID248 (DTP/NCI, 2004).
“And” between values parts separate entries of the source, which are not always exact repeats. Equal values may be shown once. Toxic doses and inconclusive results are not listed. No stated cut-off is given here; in the data, active means T/C of 150% or more; inactive means T/C below 125%. Bridge positions count the residues as written; N and C are the ends. Square brackets hold non-standard residues; d marks the D form. Peptide text beside a SMILES is read from it. I, II: the chains in the order shown. * marks the point of attachment. Quinoxaline2carbonyl = O=C(c1cnc2ccccc2n1)*; NMeV = CN[CH](C(=O)O)C(C)C; NMeC = CN[CH](CS)C(=O)O

Tested on: L1210 leukemia ip in BDF1 mice, survival T/C
Experiment: NCI In Vivo Anticancer Drug Screen. Data for tumor model L1210 Leukemia (intraperitoneal) in B6D2F1 (BDF1) mice
Details: endpoint: mean survival time, higher = longer survival
Method in brief: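 Ratio derived from survival: compound-dosed mice over vehicle-dosed mice, all bearing a transplantable tumor.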

[1] = dose: 100.0 mg/kg/injection, schedule: Q01DX009 (ip), vehicle: Klucel (hydroxypropylcellulose) (HPC)
[2] = dose: 200.0 mg/kg/injection, schedule: Q01DX009 (ip), vehicle: Klucel (hydroxypropylcellulose) (HPC)
[3] = dose: 400.0 mg/kg/injection, schedule: Q01DX009 (ip), vehicle: Klucel (hydroxypropylcellulose) (HPC)
[4] = dose: 100.0 mg/kg/injection, schedule: Q04DX003 (ip), vehicle: saline with Tween-80
[5] = dose: 200.0 mg/kg/injection, schedule: Q04DX003 (ip), vehicle: saline with Tween-80
[6] = dose: 400.0 mg/kg/injection, schedule: Q04DX003 (ip), vehicle: saline with Tween-80
[7] = dose: 100.0 mg/kg/injection, schedule: Q04DX003 (ip), vehicle: saline
[8] = dose: 200.0 mg/kg/injection, schedule: Q04DX003 (ip), vehicle: saline
[9] = dose: 400.0 mg/kg/injection, schedule: Q04DX003 (ip), vehicle: saline

Measured: T/C

N#CCN1CCCN(CC#N)C1
inactive: dose: 25.0 mg/kg/injection, schedule: Q01DX009 (ip), vehicle: Klucel (hydroxypropylcellulose) (HPC) 96 % of control | dose: 50.0 mg/kg/injection, schedule: Q01DX009 (ip), vehicle: Klucel (hydroxypropylcellulose) (HPC) 115 % of control | [1] 88 % of control and 91 % of control | dose: 100.0 mg/kg/injection, schedule: Q04DX003 (ip), vehicle: Klucel (hydroxypropylcellulose) (HPC) 92 % of control | dose: 200.0 mg/kg/injection, schedule: Q04DX003 (ip), vehicle: Klucel (hydroxypropylcellulose) (HPC) 103 % of control

CC1NC(=O)C(NC(=O)c2cnc3ccccc3n2)COC(=O)C(C(C)C)N(C)C(=O)C2CSSCC(C(=O)N(C)C(C(C)C)C(=O)OCC(NC(=O)c3cnc4ccccc4n3)C(=O)NC(C)C(=O)N2C)N(C)C1=O (configuration not stated) (I: Quinoxaline2carbonyl-SA[NMeC][NMeV] / II: Quinoxaline2carbonyl-SA[NMeC][NMeV]; ester I:1-II:C, I:C-II:1; disulfide I:3-II:3; configuration not given here)
inactive: dose: 12.5 micrograms/kg/injection, schedule: Q01DX009 (ip), vehicle: other 106 % of control | dose: 25.0 micrograms/kg/injection, schedule: Q01DX009 (ip), vehicle: other 116 % of control | dose: 50.0 micrograms/kg/injection, schedule: Q01DX009 (ip), vehicle: other 119 % of control | dose: 100.0 micrograms/kg/injection, schedule: Q01DX009 (ip), vehicle: other 122 % of control

CSc1ccc(NC(=O)Nc2ccc(Cl)cc2Cl)cc1
inactive: [1] 93 % of control | [2] 88 % of control | [3] 88 % of control

CC(=O)Nc1cccc2c1C(=O)c1ccccc1-2
inactive: [4] 102 % of control | [5] 112 % of control | [6] 102 % of control

Cc1ccc(S(=O)(=O)OCCCOS(=O)(=O)c2ccc(C)cc2)cc1
inactive: [4] 96 % of control | [5] 102 % of control | [6] 98 % of control

NNC(=O)C(CSC(c1ccccc1)c1ccccc1)NC(=O)C(CSC(c1ccccc1)(c1ccccc1)c1ccccc1)NC(=O)OCc1ccccc1 (configuration not stated)
inactive: [1] 97 % of control | [2] 97 % of control | [3] 94 % of control

ClCCN1CCOC1=Nc1ccccc1
inactive: dose: 100.0 mg/kg/injection, schedule: Q01DX001 (ip), vehicle: other 105 % of control | dose: 200.0 mg/kg/injection, schedule: Q01DX001 (ip), vehicle: other 105 % of control | dose: 400.0 mg/kg/injection, schedule: Q01DX001 (ip), vehicle: other 100 % of control

CC(=NCc1ccccc1)C(C)(O)c1ccccc1 (configuration not stated)
inactive: dose: 100.0 mg/kg/injection, schedule: Q01DX009 (ip), vehicle: other 105 % of control | dose: 100.0 mg/kg/injection, schedule: Q04DX003 (ip), vehicle: other 97 % of control | [7] 97 % of control | dose: 200.0 mg/kg/injection, schedule: Q01DX009 (ip), vehicle: other 107 % of control | dose: 200.0 mg/kg/injection, schedule: Q04DX003 (ip), vehicle: other 90 % of control | [8] 103 % of control | dose: 400.0 mg/kg/injection, schedule: Q01DX009 (ip), vehicle: other 100 % of control | dose: 400.0 mg/kg/injection, schedule: Q04DX003 (ip), vehicle: other 95 % of control | [9] 95 % of control

CNc1ccccc1C(=O)N/N=C/c1ccc(O)c(OC)c1
inactive: dose: 100.0 mg/kg/injection, schedule: Q04DX002 (ip), vehicle: Klucel (hydroxypropylcellulose) (HPC) 99 % of control | dose: 200.0 mg/kg/injection, schedule: Q04DX002 (ip), vehicle: Klucel (hydroxypropylcellulose) (HPC) 93 % of control | dose: 400.0 mg/kg/injection, schedule: Q04DX002 (ip), vehicle: Klucel (hydroxypropylcellulose) (HPC) 96 % of control

S=C(SC(=S)N(C1CCCCC1)C1CCCCC1)N(C1CCCCC1)C1CCCCC1
inactive: dose: 25.0 mg/kg/injection, schedule: Q01DX009 (ip), vehicle: saline with Tween-80 92 % of control | dose: 50.0 mg/kg/injection, schedule: Q01DX009 (ip), vehicle: saline with Tween-80 90 % of control | dose: 100.0 mg/kg/injection, schedule: Q01DX009 (ip), vehicle: saline with Tween-80 86 % of control and 89 % of control

O=C(O)C(Cc1ccc(O)cc1)c1ccccc1 (configuration not stated)
inactive: [7] 98 % of control | [8] 94 % of control | [9] 96 % of control
